Read-outs that look alike come from different tables or passages of the source.
Legend:
[1] = system: green peach aphid (Myzus persicae); test: Myzus persicae test (spray treatment); assay type: in vivo; details: foliar, 144 h, read-out: efficacy in %
Protocol: Myzus persicae Test (Spray Treatment)
• Solvent: 78 parts by weight of acetone • 1.5 parts by weight of dimethylformamide • Emulsifier: 0.5 part by weight of alkylaryl polyglycol ether
To prepare an appropriate active ingredient preparation, 1 part by weight of active ingredient is mixed with the stated amounts of solvent and emulsifier, and the concentrate is diluted with emulsifier-containing water to the desired concentration. Discs of Chinese cabbage (Brassica pekinensis) infested by all stages of the green peach aphid (Myzus persicae) are sprayed with an active ingredient preparation of the desired concentration.
After 6 days, the efficacy in % is determined. 100% means that all of the aphids have been killed; 0% means that none of the aphids have been killed.

[2] = physchem; assay type: physicochemical; details: reverse-phase HPLC column (C 18)
Protocol: 1 Method Description for Determination of the logP values and Mass Detection
Eluents for determination in the acidic range (pH 3.4): • Eluent A: acetonitrile+1 ml formic acid/l.
The λmax values were determined in the maxima of the chromatographic signals using the UV spectra from 200 nm to 400 nm. The mass was detected (M^+, m/z) by means of an Agilent MSD mass spectrometer.

[3] = system: armyworm (Spodoptera frugiperda); test: Spodoptera frugiperda test (spray treatment); assay type: in vivo; details: application rate 500 g/ha; maize leaf discs sprayed; after 7 days; 100% = all caterpillars killed
Protocol: Spodoptera frugiperda Test (Spray Treatment)
• Solvent: 78.0 parts by weight of acetone • 1.5 parts by weight of dimethylformamide • Emulsifier: 0.5 part by weight of alkylaryl polyglycol ether
To prepare an appropriate active ingredient preparation, 1 part by weight of active ingredient is mixed with the stated amounts of solvent and emulsifier, and the concentrate is diluted with emulsifier-containing water to the desired concentration. Discs of maize leaves (Zea mays) are sprayed with an active ingredient preparation of the desired concentration and, after drying, populated with the armyworm (Spodoptera frugiperda).
After 7 days, the efficacy in % is determined. 100% means that all caterpillars have been killed; 0% means that none of the caterpillars have been killed.

[4] = application rate 500 g/ha, Chinese cabbage leaf discs sprayed, after 6 days, 100% = all aphids killed
[5] = pH 3.4, HPLC, reverse-phase C 18, acidic range pH 3.4, 55° C., table of compounds, read-out: logP (HCO2H)
[6] = pH 3.4, HPLC-MS value printed in the preparation example text, acidic range pH 3.4, read-out: logP (HCOOH)

| SMILES | pest or weed control at 500 g/ha [1, 4] [%] | chromatographic logP [2, 5] | chromatographic logP [2, 6] | pest or weed control at 500 g/ha ([1]; in Brassica rapa) [%] | efficacy in % [3] [%] |
| --- | --- | --- | --- | --- | --- |
| CC(NC(=O)c1ccc(-c2cccnc2)o1)C1CC1 (centres unmarked) [Compound 8] | 80 | 1.36 | – | – | – |
| CN(C)C(=O)c1cc(-c2cccnc2)no1 [Compound 2, N,N-Dimethyl-3-(pyridin-3-yl)-1,2-oxazole-5-carboxamide] | 100 | 0.78 | 0.78 | – | – |
| CN(C)C(=O)c1cnc(-c2cccnc2)o1 [Compound 25, N,N-Dimethyl-2-(pyridin-3-yl)-1,3-oxazole-5-carboxamide] | 90 | 1.43 | 1.43 | – | – |
| O=C(NCC1CC1)c1ccc(-c2cccnc2)o1 [Compound 30] | 100 | 1.39 | – | – | – |
| O=C(NCC(F)(F)F)C1CN=C(c2cncnc2)S1 (centres unmarked) [Compound 45] | 100 | 1.4 | – | – | – |
| CC(F)(F)CNC(=O)c1cn(-c2cccnc2)nn1 [Compound 37, N-(2,2-Difluoropropyl)-1-(pyridin-3-yl)-1H-1,2,3-triazole-4-carboxamide] | – | 1.21 | 1.25 | 100 | 100 |
| CCN(CC)C(=O)c1oc(-c2cccnc2)cc1C [Compound 24] | 90 | 1.58 | – | – | – |
| O=C(NCC(F)(F)F)c1ccn(-c2cccnc2)c1 [Compound 36, 1-(Pyridin-3-yl)-N-(2,2,2-trifluoroethyl)pyrrole-3-carboxamide] | – | 1.24 | 1.24 | 90 | – |
| C=C(Cl)CNC(=O)c1ccc(-c2cccnc2)o1 [Compound 19] | 100 | 1.28 | – | – | – |
| O=C(NCC(F)(F)F)c1coc(-c2cccnc2)c1 [Compound 12, 5-(Pyridin-3-yl)-N-(2,2,2-trifluoroethyl)furan-3-carboxamide] | 90 | 1.13 | 1.13 | – | – |
| O=C(NCC(F)(F)F)n1cnc(-c2cccnc2)c1 [Compound 1, 4-(Pyridin-3-yl)-N-(2,2,2-trifluoroethyl)-1H-imidazole-1-carboxamide] | 100 | 0.65 | 0.65 | – | – |
| CC(F)(F)CNC(=O)c1cc(-c2cccnc2)ns1 [Compound 38, N-(2,2-Difluoropropyl)-3-(pyridin-3-yl)-1,2-thiazole-5-carboxamide] | – | 1.33 | 1.33 | 100 | – |
| O=C(NCc1ncccn1)c1cc(-c2cccnc2)no1 [Compound 3] | 100 | 0.62 | – | – | – |
| CCCNC(=O)c1ccc(-c2cccnc2)o1 [Compound 32] | 100 | 0.83 | – | – | – |
| CN(C)C(=O)c1ccc(-c2cccnc2)o1 [Compound 7] | 100 | 0.51 | – | – | – |

From patent publication US9233951B2, “Heterocyclic compounds as pesticides” (Bayer Intellectual Property GmbH, priority 2010, dated 2016)
